Data reported in PubChem BioAssay AID330 (DTP/NCI, 2004).
“And” between values parts separate entries of the source, which are not always exact repeats. Identical values can stand only once. Toxic doses and inconclusive results are not listed. Rule for the calls: active = survival T/C of 150% or more; inactive = T/C below 125% in these data.

Tested on: P388 leukemia ip, CD2F1 mice, survival T/C
Assay: NCI In Vivo Anticancer Drug Screen. Data for tumor model P388 Leukemia (intraperitoneal) in CD2F1 (CDF1) mice
Conditions: endpoint: median survival time, higher = longer survival
Outline: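 Mice carrying the transplanted tumor received test compound or vehicle. Survival was recorded in each group, and the value is the treated-group measurement divided by that of the vehicle-treated control group.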

[1] = dose: 50.0 mg/kg/injection, schedule: Q01DX009 (ip), vehicle: Klucel (hydroxypropylcellulose) (HPC)
[2] = dose: 100.0 mg/kg/injection, schedule: Q01DX009 (ip), vehicle: Klucel (hydroxypropylcellulose) (HPC)
[3] = dose: 100.0 mg/kg/injection, schedule: Q01DX009 (ip), vehicle: saline with Tween-80
[4] = dose: 200.0 mg/kg/injection, schedule: Q01DX009 (ip), vehicle: saline with Tween-80
[5] = dose: 12.5 mg/kg/injection, schedule: Q01DX009 (ip), vehicle: Klucel (hydroxypropylcellulose) (HPC)
[6] = dose: 25.0 mg/kg/injection, schedule: Q01DX009 (ip), vehicle: Klucel (hydroxypropylcellulose) (HPC)
[7] = dose: 50.0 mg/kg/injection, schedule: Q01DX009 (ip), vehicle: other
[8] = dose: 200.0 mg/kg/injection, schedule: Q01DX009 (ip), vehicle: other
[9] = dose: 100.0 mg/kg/injection, schedule: Q04DX003 (ip), vehicle: saline
[10] = dose: 12.5 mg/kg/injection, schedule: Q01DX009 (ip), vehicle: saline with Tween-80
[11] = dose: 25.0 mg/kg/injection, schedule: Q01DX009 (ip), vehicle: saline with Tween-80
[12] = dose: 50.0 mg/kg/injection, schedule: Q01DX009 (ip), vehicle: saline with Tween-80

Measured: T/C

CCCCCc1c(-c2n[nH]c(C)c2CCCCC)n[nH]c1C
inactive: dose: 60.0 mg/kg/injection, schedule: Q01DX005 (ip), vehicle: Klucel (hydroxypropylcellulose) (HPC) 92 % of control | dose: 120.0 mg/kg/injection, schedule: Q01DX005 (ip), vehicle: Klucel (hydroxypropylcellulose) (HPC) 96 % of control | dose: 240.0 mg/kg/injection, schedule: Q01DX005 (ip), vehicle: Klucel (hydroxypropylcellulose) (HPC) 100 % of control

CN=C=O
inactive: dose: 6.25 mg/kg/injection, schedule: Q01DX005 (ip), vehicle: water 99 % of control | dose: 12.5 mg/kg/injection, schedule: Q01DX005 (ip), vehicle: water 92 % of control | dose: 25.0 mg/kg/injection, schedule: Q01DX005 (ip), vehicle: water 98 % of control | dose: 50.0 mg/kg/injection, schedule: Q01DX005 (ip), vehicle: water 101 % of control | dose: 100.0 mg/kg/injection, schedule: Q01DX005 (ip), vehicle: water 108 % of control | dose: 200.0 mg/kg/injection, schedule: Q01DX005 (ip), vehicle: water 99 % of control

CC(=O)CC(=O)C(F)(F)F.CC(=O)CC(=O)C(F)(F)F.CC(=O)CC(=O)C(F)(F)F.[Sm]
inactive: [1] 96 % of control | [2] 94 % of control | dose: 200.0 mg/kg/injection, schedule: Q01DX009 (ip), vehicle: Klucel (hydroxypropylcellulose) (HPC) 93 % of control | dose: 400.0 mg/kg/injection, schedule: Q01DX009 (ip), vehicle: Klucel (hydroxypropylcellulose) (HPC) 94 % of control

COc1cccc(/C=N\O)c1
inactive: [3] 104 % of control | [4] 100 % of control | dose: 400.0 mg/kg/injection, schedule: Q01DX009 (ip), vehicle: saline with Tween-80 104 % of control

CC(C)=CCc1c(OC(=O)c2c(C)cc(O)cc2O)cc(CO)c(CO)c1O
inactive: dose: 6.25 mg/kg/injection, schedule: Q01DX009 (ip), vehicle: Klucel (hydroxypropylcellulose) (HPC) 101 % of control | [5] 100 % of control and 101 % of control | [6] 101 % of control and 96 % of control | [1] 101 % of control and 104 % of control | [2] 101 % of control and 102 % of control

COc1cc(Br)c(C(=O)N2CCCc3ccccc32)cc1OC
inactive: dose: 12.5 mg/kg/injection, schedule: Q01DX009 (ip), vehicle: other 101 % of control | dose: 25.0 mg/kg/injection, schedule: Q01DX009 (ip), vehicle: other 94 % of control | [7] 91 % of control | dose: 100.0 mg/kg/injection, schedule: Q01DX009 (ip), vehicle: other 91 % of control | [8] 94 % of control

[CH3][Sn]([CH3])([O]C(=O)c1ccc2c(c1)OCO2)[O]C(=O)c1ccc2c(c1)OCO2
inactive: dose: 50.0 mg/kg/injection, schedule: Q01DX005 (ip), vehicle: Klucel (hydroxypropylcellulose) (HPC) 112 % of control | dose: 100.0 mg/kg/injection, schedule: Q01DX005 (ip), vehicle: Klucel (hydroxypropylcellulose) (HPC) 112 % of control | dose: 200.0 mg/kg/injection, schedule: Q01DX005 (ip), vehicle: Klucel (hydroxypropylcellulose) (HPC) 109 % of control

NC(=O)CCn1cnc2c(N)ncnc21
inactive: dose: 25.0 mg/kg/injection, schedule: Q04DX003 (ip), vehicle: saline 100 % of control | dose: 50.0 mg/kg/injection, schedule: Q04DX003 (ip), vehicle: saline 100 % of control | [9] 99 % of control

CN(C)NP(=O)(NN(C)C)Oc1ccccc1
inactive: dose: 50.0 mg/kg/injection, schedule: Q01DX005 (ip), vehicle: saline 97 % of control | dose: 100.0 mg/kg/injection, schedule: Q01DX005 (ip), vehicle: saline 99 % of control | dose: 200.0 mg/kg/injection, schedule: Q01DX005 (ip), vehicle: saline 103 % of control

O=C1CC(c2ccccc2)Oc2cc(O)cc(O)c21 (centres undefined)
inactive: [5] 98 % of control | [6] 98 % of control | [7] 110 % of control | [2] 98 % of control | [8] 102 % of control | dose: 400.0 mg/kg/injection, schedule: Q01DX009 (ip), vehicle: other 102 % of control

O=NN(CCCl)C(=O)NC1CCC(=O)NC1=O (centres undefined)
active: dose: 1.0 mg/kg/injection, schedule: Q04DX003 (ip), vehicle: saline 154 % of control | dose: 2.0 mg/kg/injection, schedule: Q01DX005 (ip), vehicle: saline + alcohol 214 % of control | dose: 2.0 mg/kg/injection, schedule: Q04DX003 (ip), vehicle: saline 195 % of control | dose: 4.0 mg/kg/injection, schedule: Q01DX001 (ip), vehicle: saline + alcohol 172 % of control | dose: 4.0 mg/kg/injection, schedule: Q01DX005 (ip), vehicle: saline + alcohol 315 % of control | dose: 4.0 mg/kg/injection, schedule: Q01DX005 (iv), vehicle: saline + alcohol 205 % of control | dose: 4.0 mg/kg/injection, schedule: Q01DX005 (oral), vehicle: saline + alcohol 207 % of control | dose: 4.0 mg/kg/injection, schedule: Q04DX003 (ip), vehicle: saline with Tween-80 272 % of control | dose: 4.0 mg/kg/injection, schedule: Q04DX003 (ip), vehicle: saline 263 % of control | dose: 6.0 mg/kg/injection, schedule: Q04DX003 (ip), vehicle: saline with Tween-80 272 % of control | dose: 8.0 mg/kg/injection, schedule: Q01DX001 (ip), vehicle: saline + alcohol 232 % of control | dose: 8.0 mg/kg/injection, schedule: Q01DX001 (iv), vehicle: saline + alcohol 158 % of control | dose: 8.0 mg/kg/injection, schedule: Q01DX005 (iv), vehicle: saline + alcohol 252 % of control | dose: 8.0 mg/kg/injection, schedule: Q01DX005 (oral), vehicle: saline + alcohol 315 % of control | dose: 9.0 mg/kg/injection, schedule: Q04DX003 (ip), vehicle: saline with Tween-80 272 % of control | dose: 13.0 mg/kg/injection, schedule: Q01DX001 (ip), vehicle: saline with Tween-80 517 % of control | dose: 16.0 mg/kg/injection, schedule: Q01DX001 (ip), vehicle: saline + alcohol 312 % of control | dose: 16.0 mg/kg/injection, schedule: Q01DX001 (iv), vehicle: saline + alcohol 203 % of control | dose: 16.0 mg/kg/injection, schedule: Q01DX001 (oral), vehicle: saline + alcohol 187 % of control
inactive: dose: 0.5 mg/kg/injection, schedule: Q04DX003 (ip), vehicle: saline 122 % of control | dose: 2.0 mg/kg/injection, schedule: Q01DX005 (iv), vehicle: saline + alcohol 117 % of control | dose: 3.13 mg/kg/injection, schedule: Q01DX009 (ip), vehicle: saline with Tween-80 118 % of control | dose: 6.25 mg/kg/injection, schedule: Q01DX009 (ip), vehicle: saline with Tween-80 109 % of control | dose: 12.5 mg/kg/injection, schedule: Q04DX003 (ip), vehicle: saline with Tween-80 87 % of control | dose: 16.0 mg/kg/injection, schedule: Q01DX005 (oral), vehicle: saline + alcohol 119 % of control

NC(N)=NC(N)=Nc1ccc(Cl)c(Cl)c1
inactive: [10] 103 % of control | [11] 103 % of control and 106 % of control | [12] 112 % of control and 93 % of control | [3] 88 % of control | [9] 109 % of control

C[n+]1cccc2c1C(=O)C(=O)c1ncccc1-2
inactive: [10] 100 % of control | [11] 108 % of control | [12] 109 % of control

Cn1c(=O)c2nc(-c3cccc([N+](=O)[O-])c3)cnc2n(C)c1=O
inactive: dose: 100.0 mg/kg/injection, schedule: Q04DX002 (ip), vehicle: Klucel (hydroxypropylcellulose) (HPC) 89 % of control | dose: 200.0 mg/kg/injection, schedule: Q04DX002 (ip), vehicle: Klucel (hydroxypropylcellulose) (HPC) 95 % of control | dose: 400.0 mg/kg/injection, schedule: Q04DX002 (ip), vehicle: Klucel (hydroxypropylcellulose) (HPC) 100 % of control

CN(C)CCC(C#N)(CCC1CCCCC1)c1ccccc1 (centres undefined)
inactive: dose: 10.0 mg/kg/injection, schedule: Q01DX009 (ip), vehicle: saline 103 % of control | dose: 20.0 mg/kg/injection, schedule: Q01DX009 (ip), vehicle: saline 104 % of control | dose: 40.0 mg/kg/injection, schedule: Q01DX009 (ip), vehicle: saline 103 % of control

COC(=O)CCCC(NC(=O)c1ccc([N+](=O)[O-])cc1)C(=O)OC (centres undefined)
inactive: [12] 98 % of control | [3] 96 % of control | [4] 96 % of control

COc1cc(N=Nc2ccccc2)cc(/C=N\NC(=S)Nc2cccc(C)c2)c1O
inactive: dose: 50.0 mg/kg/injection, schedule: Q01DX005 (ip), vehicle: saline with Tween-80 87 % of control
